The values below come from patent publication US10472354B2, “1,3-thiazol-2-yl substituted benzamides” (Bayer Aktiengesellschaft, priority 2014, dated 2019).

A short description of data set [1]: In vitro metabolic stability in liver microsomes (calculation of CL and Fmax). It is filed as in vitro ADME, human. The conditions noted are these: 1 μM, in vitro metabolic stability given as calculated maximal oral bioavailability. How it is done: Determination of in vitro metabolic stability in microsomes (including calculation of hepatic in vivo blood clearance (CL) and of maximal oral bioavailability (Fmax))
The metabolic assay was started shortly afterwards by adding the test compound to the incubation at a final volume of 1 mL. Organic solvent in the incubations was limited to ≤0.01% dimethylsulfoxide (DMSO) and ≤1% acetonitrile. […] Samples were frozen at −20° C. overnight, subsequently centrifuged for 15 minutes at 3000 rpm and the supernatant was analyzed with an Agilent 1200 HPLC-system with LCMS/MS detection.
The half-life of a test compound was determined from the concentration-time plot. From the half-life (kel: slope of concentration-time plot; half-life=ln 2/kel) the intrinsic clearances were calculated. Together with the additional parameters liver blood flow, specific liver weight and microsomal protein content the hepatic in vivo blood clearance (CL) and the maximal oral bioavailability (Fmax) were calculated for the different species.
(§1) Metabolic instability is often the main clearance mechanism of xenobiotica leading to a high CL and low bioavailability which may eventually result in a short half-life and a low exposure after oral administration. Thus, reducing the susceptibility of metabolic degradation usually leads to a more favourable pharmacokinetic profile. When using liver microsomes as incubation matrix main phase I metabolic reactions, typically oxidoreductive reactions by cytochrome P450 enzymes and flavin mono-oxygenases (FMO) and hydrolytic reactions by esterases/amidases/epoxidhydrolases, are described. When the incubation of the test compound is performed in a hepatocyte matrix all potential hepatic metabolic processes (phase I and phase II) are covered.

Data set [2] in a line: In vitro metabolic stability in rat hepatocytes. The conditions noted are these: 1 μM, in vitro metabolic stability given as calculated maximal oral bioavailability. It is filed as in vitro ADME. The method, then: Determination of in vitro metabolic stability in rat hepatocytes (including calculation of hepatic in vivo blood clearance (CL))
Hepatocytes from Han Wistar rats were isolated via a 2-step perfusion method. After perfusion, the liver was carefully removed from the rat: the liver capsule was opened and the hepatocytes were gently shaken out into a Petri dish with ice-cold Williams' medium E (WME). The resulting cell suspension was filtered through sterile gaze in 50 mL falcon tubes and centrifuged at 50×g for 3 min at room temperature. The cell pellet was resuspended in 30 mL WME and centrifuged through a Percoll® gradient for 2 times at 100×g. The hepatocytes were washed again with WME and resuspended in medium containing 5% FCS. Cell viability was determined by trypan blue exclusion.
The test compound was added to a final concentration of 1 μM. […] Samples were frozen at −20° C. overnight, subsequently centrifuged for 15 minutes at 3000 rpm and the supernatant was analyzed with an Agilent 1200 HPLC-system with LCMS/MS detection.
The half-life of a test compound was determined from the concentration-time plot. From the half-life (kel: slope of concentration-time plot; half-life=ln 2/kel) the intrinsic clearances were calculated. Together with the additional parameters liver blood flow, amount of liver cells in vivo and in vitro.
as §1

The target in data set [3] is CYP2C9 (Homo sapiens (Human), UniProt P11712). The data set can be described thus: CYP inhibition assay, CYP2C9. It is filed as in vitro ADME. The conditions noted are these: human liver microsomes, probe diclofenac. How it is done:
(§2) Method Description CYP Inhibition Assay
(§3) Data analysis: The CYP-mediated activities in the presence of inhibitors were expressed as percentages of the corresponding control values. A sigmoid-shaped curve was fitted to the data, and the enzyme inhibition parameter IC50 was calculated using a nonlinear least-squares regression analysis of the plot of percent control activity versus concentration of the test inhibitor.
On the technique in general: Liver microsomes are vesicles of endoplasmic reticulum, rich in cytochrome P450 enzymes.

In data set [4] the target is CYP2C8 (Homo sapiens (Human), UniProt P10632). Nature of the data set: CYP inhibition assay, CYP2C8. It is filed as in vitro ADME. The conditions noted are these: human liver microsomes, probe amodiquine. The method, then:
as §2, §3

In data set [5] the target is CYP1A2 (Homo sapiens (Human), UniProt P05177). The data set can be described thus: CYP inhibition assay, CYP1A2. How it is done:
as §2, §3

Data set [6] deals with CYP3A4 (Homo sapiens (Human), UniProt P08684). The data set can be described thus: CYP inhibition assay, CYP3A4. It is filed as in vitro ADME. The conditions noted are these: human liver microsomes, probe midazolam. How it is done:
as §2, §3

For data set [7], the target named is CYP2D6 (Homo sapiens (Human), UniProt P10635). Nature of the data set: CYP inhibition assay, CYP2D6. It is filed as in vitro ADME. The conditions noted are these: human liver microsomes, probe dextromethorphan. The method, then:
as §2, §3

The conditions of data set [8]: clinical PhII trials; side effect attributed to blockade of P2X2/3 channels; cited from earlier work.
Data set [9] concerns vaginal hyperalgesia. The data set can be described thus: Rat dyspareunia model (visceromotor response to vaginal distension). It is filed as in vivo. Particulars: 15 mg/kg oral b.i.d. during 2 weeks, 5 and 6 weeks post-implantation.
Description: The visceromotor response (VMR) to vaginal distension was used in conscious animals as an objective measure of vaginal sensitivity. Briefly, animals in estrus phase were surgically implanted with biopsies of left uterine horn (3×3 mm) around alternate cascade mesenteric arteries that supply the small intestine (4 pieces) and on the wall of the distal colon (2 pieces). To measure VMR response, 2 Teflon-coated wire electrodes were sutured in the external oblique abdominal muscle, and tunneled subcutaneously to be exteriorized at the base of the neck for future access. On the day of VMR assessment, a lubricated small balloon (1 cm length) was inserted into the mid-vaginal canal. […] The electrodes were connected to an amplifier (Animal Bio Amp, ADInstruments), and the abdominal electromyographic signal was recorded using a data acquisition system (PowerLab, ADInstruments) for off-line analysis using LabChart version 7. The number of abdominal muscle contractions was counted manually for each 0.1 ml distension step, as an index of vaginal pain. […] Statistical Analysis All data were expressed as mean±standard deviation (s.d.), for the number (n) of measured rats per group. […] Planned comparison of means (matched-volume versus vehicle) was performed using a Bonferroni post hoc test, provided that a main effect was detected. […]
Data set [10] can be described thus: Human liver cytosol stability assay. It is filed as in vitro ADME. The conditions noted are these: 4 h incubation, 37° C. How it is done: Human Liver Cytosol Stability Assay
Method description: Human liver cytosol (pooled, >30 male and female donors) was incubated with individual test compounds in order to compare the extent of depletion of test compound and formation of the respective oxidised metabolite. […] An incubation volume of 1000 μL was used. The test compound was added from a stock solution in acetonitrile at 1 or 10 μM concentration in the incubation. Incubations were performed at 37° C. Reactions were stopped at 0 h and 4 h after incubation by addition of 100 μL acetonitrile to 250 μL of incubation mixture. Precipitated proteins were removed by centrifugation at approximately 3000 rpm. The supernatants were stored at approximately −20° C. until they were analysed. […]
Data analysis: The depletion of the test compound and formation of the corresponding metabolites were determined by decrease or increase of the corresponding peak area in the chromatogram after UV detection at approximately 300 nm 4 h after incubation compared to that at 0 h after incubation. […]

pIC50: −log10 of the molar value.

For orientation: pIC50 means the negative decadic logarithm of the IC50, by convention in mol/L. High values mean a small IC50, low ones a large IC50.

Chain of CYP2C9 (P11712 whole entry): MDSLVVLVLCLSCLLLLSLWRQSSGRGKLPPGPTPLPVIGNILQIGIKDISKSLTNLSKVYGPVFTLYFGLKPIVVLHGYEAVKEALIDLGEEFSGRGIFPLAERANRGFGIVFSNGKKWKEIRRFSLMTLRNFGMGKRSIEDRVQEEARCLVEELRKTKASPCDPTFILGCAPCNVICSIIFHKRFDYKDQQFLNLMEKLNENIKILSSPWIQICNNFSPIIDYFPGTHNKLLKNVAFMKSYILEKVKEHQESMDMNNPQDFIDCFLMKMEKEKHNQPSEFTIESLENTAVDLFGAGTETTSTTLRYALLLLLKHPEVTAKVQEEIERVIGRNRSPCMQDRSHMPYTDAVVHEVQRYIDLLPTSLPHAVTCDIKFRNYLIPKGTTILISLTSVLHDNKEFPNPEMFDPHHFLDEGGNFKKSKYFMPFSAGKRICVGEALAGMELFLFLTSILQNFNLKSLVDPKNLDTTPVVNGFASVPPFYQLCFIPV
Chain of CYP1A2 (P05177 whole entry): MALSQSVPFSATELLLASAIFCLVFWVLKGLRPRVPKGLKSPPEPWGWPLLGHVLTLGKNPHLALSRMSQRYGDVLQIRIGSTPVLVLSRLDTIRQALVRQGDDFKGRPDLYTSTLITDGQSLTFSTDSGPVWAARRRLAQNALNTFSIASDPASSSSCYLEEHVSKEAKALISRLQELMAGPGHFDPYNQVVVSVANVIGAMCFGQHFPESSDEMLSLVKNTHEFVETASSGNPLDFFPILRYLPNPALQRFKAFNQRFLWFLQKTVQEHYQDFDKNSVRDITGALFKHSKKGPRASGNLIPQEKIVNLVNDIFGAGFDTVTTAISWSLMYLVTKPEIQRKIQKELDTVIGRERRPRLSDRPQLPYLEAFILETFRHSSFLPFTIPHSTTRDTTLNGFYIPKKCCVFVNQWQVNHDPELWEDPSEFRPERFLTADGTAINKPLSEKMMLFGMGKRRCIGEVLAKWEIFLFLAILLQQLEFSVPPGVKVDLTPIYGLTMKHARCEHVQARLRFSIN
Chain of CYP2C8 (P10632 whole entry): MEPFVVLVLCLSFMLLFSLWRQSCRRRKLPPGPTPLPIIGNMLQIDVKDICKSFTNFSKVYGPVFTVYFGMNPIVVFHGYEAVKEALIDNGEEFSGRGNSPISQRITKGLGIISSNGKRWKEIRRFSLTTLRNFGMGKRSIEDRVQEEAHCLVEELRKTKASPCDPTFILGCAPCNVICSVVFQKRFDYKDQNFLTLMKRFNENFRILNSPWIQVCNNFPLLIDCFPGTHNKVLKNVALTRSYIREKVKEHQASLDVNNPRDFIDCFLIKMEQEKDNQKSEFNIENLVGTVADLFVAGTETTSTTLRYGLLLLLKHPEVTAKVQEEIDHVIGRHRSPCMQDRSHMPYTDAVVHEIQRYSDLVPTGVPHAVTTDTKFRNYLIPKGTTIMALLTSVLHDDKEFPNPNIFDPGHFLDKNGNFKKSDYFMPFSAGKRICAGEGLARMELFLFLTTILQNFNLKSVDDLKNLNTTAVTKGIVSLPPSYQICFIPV
Chain of CYP3A4 (P08684 whole entry): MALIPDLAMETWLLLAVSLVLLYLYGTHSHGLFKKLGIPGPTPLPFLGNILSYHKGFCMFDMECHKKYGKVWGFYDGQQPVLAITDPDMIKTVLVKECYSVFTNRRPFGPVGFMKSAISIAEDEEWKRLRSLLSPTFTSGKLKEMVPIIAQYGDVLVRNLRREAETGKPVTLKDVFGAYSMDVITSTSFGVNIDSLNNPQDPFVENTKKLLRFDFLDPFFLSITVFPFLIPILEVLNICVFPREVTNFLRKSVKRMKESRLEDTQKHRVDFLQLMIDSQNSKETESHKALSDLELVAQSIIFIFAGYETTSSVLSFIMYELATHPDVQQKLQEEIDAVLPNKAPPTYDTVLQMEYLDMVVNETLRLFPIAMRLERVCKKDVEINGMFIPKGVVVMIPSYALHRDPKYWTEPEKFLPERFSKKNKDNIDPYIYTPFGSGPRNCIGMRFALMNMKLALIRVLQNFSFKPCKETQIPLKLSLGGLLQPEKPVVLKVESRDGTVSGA
Chain of CYP2D6 (P10635 whole entry): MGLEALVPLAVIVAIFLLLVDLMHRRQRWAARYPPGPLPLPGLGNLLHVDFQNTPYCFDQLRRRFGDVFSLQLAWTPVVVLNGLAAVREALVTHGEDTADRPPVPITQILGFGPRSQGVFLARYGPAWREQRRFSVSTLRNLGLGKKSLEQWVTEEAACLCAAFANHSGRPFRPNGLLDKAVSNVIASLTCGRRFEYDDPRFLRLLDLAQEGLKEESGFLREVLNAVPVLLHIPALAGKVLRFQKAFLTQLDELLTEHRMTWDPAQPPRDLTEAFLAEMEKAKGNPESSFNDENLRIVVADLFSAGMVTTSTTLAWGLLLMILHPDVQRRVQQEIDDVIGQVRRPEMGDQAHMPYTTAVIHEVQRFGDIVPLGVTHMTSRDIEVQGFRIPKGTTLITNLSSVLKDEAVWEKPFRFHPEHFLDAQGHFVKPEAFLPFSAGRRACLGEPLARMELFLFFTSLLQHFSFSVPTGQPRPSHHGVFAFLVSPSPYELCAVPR

Regarding `Cc1cnc(-c2cc(OC(C)C(C)O)cc(C(=O)N[C@H](C)c3cnc(C(F)(F)F)nc3)c2)s1` (single isomer, unassigned) [Example 163], the “Human liver microsome Fmax” value in [1] is 100%. Further, the “Rat hepatocyte Fmax” value in data set [2] is 53%.

As for `Cc1cnc(-c2cc(OC(C)C(C)O)cc(C(=O)N[C@H](C)c3ccc(C(F)(F)F)nn3)c2)s1` (single isomer, unassigned) [Example 183], in [1], the “Human liver microsome Fmax” value is 74%. For the same molecule, the “Rat hepatocyte Fmax” value in data set [2] was 43%.

For the molecule `Cc1cnc(-c2cc(OC(C)C(C)O)cc(C(=O)N[C@H](C)c3cnc(C(F)(F)F)nc3)c2)s1` (single isomer, unassigned) [Example 339], the pIC50 in data set [3], in data set [4], in data set [5], in [6] and in data set [7] was below 4.70 in each case. The “Human liver microsome Fmax” value in data set [1] is recorded as 94%. In addition, the “Rat hepatocyte Fmax” value in data set [2] was 52%.

With `Cc1cnc(-c2cc(OC(C)C(C)O)cc(C(=O)N[C@H](C)c3cnc(C(F)(F)F)nc3)c2)s1` (single isomer, unassigned) [Example 340], the “Human liver microsome Fmax” value in [1] was 90%. In addition, the “Rat hepatocyte Fmax” value in [2] is 64%.

For the molecule `COc1cc(C(C)C)c(Oc2cnc(N)nc2N)cc1S(N)(=O)=O` [AF-219], in [8], the “taste disturbances in treated subjects” value is “leads to taste disturbances”.

For `Cc1cnc(-c2cc(O[C@@H]3CCOC3)cc(C(=O)N[C@H](C)c3cnc(C(F)(F)F)nc3)c2)s1` [Example 11, 3-(5-Methyl-1,3-thiazol-2-yl)-5-[(3R)-tetrahydrofuran-3-yloxy]-N-{(1R)-1-[2-(trifluoromethyl)pyrimidin-5-yl]ethyl}benzamide], the “Human liver microsome Fmax” value in data set [1] is given as 57%. The “Vaginal hyperalgesia compared to vehicle-treated animals” value in data set [9] is reported as “decreased vaginal hyperalgesia”. In addition, the “Test compound turnover after 4 h” value in data set [10] is on record as 0.9%. Moreover, in data set [2], the “Rat hepatocyte Fmax” value was 52%.

Take `Cc1cnc(-c2cc(O[C@H]3CCOC3)cc(C(=O)N[C@H](C)c3cnc(C(F)(F)F)nc3)c2)s1` [Example 26, 3-(5-Methyl-1,3-thiazol-2-yl)-5-[(3S)-tetrahydrofuran-3-yloxy]-N-{(1R)-1-[2-(trifluoromethyl)pyrimidin-5-yl]ethyl}benzamide]: the “Human liver microsome Fmax” value in data set [1] is reported as 67%. Besides, in [10], the “Test compound turnover after 4 h” value was determined as 0.9%. In data set [2], the “Rat hepatocyte Fmax” value is on record as 56%.

In the case of `CCc1cnc(-c2cc(OC[C@H]3CN(C)CCO3)cc(C(=O)N[C@H](C)c3ccc(C(F)(F)F)nn3)c2)s1` [Example 419, 3-(5-ethyl-1,3-thiazol-2-yl)-5-{[(2R)-4-methylmorpholin-2-yl]methoxy}-N-{(1R)-1-[6-(trifluoromethyl)pyridazin-3-yl]ethyl}benzamide], in data set [1], the “Human liver microsome Fmax” value is listed as 74%. In addition, the “Rat hepatocyte Fmax” value in data set [2] was 51%.
